Like-named read-outs stand apart in the source and are kept apart here.
Legend:
[1] = Acute toxicity (LD50, Litchfield-Wilcoxon method); settings: mouse, in vivo, male mice
Protocol: LD50 values of oxidized derivatives of steryl-β-D-glucoside and acetyl derivatives thereof were calculated by Litchfield-Wilcoxon method using male mice.

[2] = tested on: bleeding at the end of mouse's tail; test: Hemostatic effects: influences on bleeding at the end of mouse's tail; type: in vivo; settings: vs untreated control
Protocol: Influences on bleeding at the end of mouse's tail:
Groups each comprising 10 male mice were employed. According to a method of Motohashi, et al. [Journal of Tokyo Jikei-kai Medical College, 75 (5) (1959)], the end of tail (1 cm) of each mouse was cut out with a sharp surgical knife and the blood threading from the wound into water was observed. A time required until the bleeding stopped completely was measured and rate of readuction of the bleeding time as compared with that of untreated control group was calculated.

[3] = tested on: hemorrage in mouse's lung; test: Capillary stabilizing effects: inhibiting hemorrage in mouse's lung caused by pressure reduction; type: in vivo; settings: pressure reduction to 50±0.5 mmHg/15 sec., score method; for ED50: Mus musculus, oral administration
Protocol: C. Capillary stabilizing effects:
Effects of inhibiting hemorrage in mouse's lung:
Degree of hemorrage in mouse's lung caused by pressure reduction to 50±0.5 mmHg/15 sec. was determined by a method of G. J. Mojovski, et al. [J. Pharm. Exp. Therap., 80, 1, (1944)] (score method). From the inhibition rate calculated as compared with untreated control group, ED50 of the sample was calculated.

[4] = ip, intraperitoneal administration, read-out: LD50 Intraperitoneal administration
[5] = oral administration, read-out: LD50 Oral administration

**Q.** With `CC(=O)OCC1OC(OC2CCC3(C)C(=CC(=O)C4C3CCC3(C)C(C(C)CCCC(C)C)CCC43)C2)C(OC(C)=O)C(OC(C)=O)C1OC(C)=O` [Compound 5, (7-Ketocholesteryl)-2,3,4,6-tetra-0-acetyl-β-D-glucopyranoside] as the molecule, how does the LD50 [1, 4] read?
**A.** > 15000 mg/kg

**Q.** And the LD50 [1, 5]?
**A.** > 12000 mg/kg

**Q.** Which results are given for `CCC(CCC(C)C1CCC2C3C(=O)C=C4CC(OC5OC(COC(C)=O)C(OC(C)=O)C(OC(C)=O)C5OC(C)=O)CCC4(C)C3CCC12C)C(C)C` (centres unmarked) [Compound 6]?
**A.** Reduction rate (of bleeding time) ([2]; 0.1 mg/Kg i.p.): 22%; ED50 [3]: 62 mg/kg

**Q.** For `CC(C)CCCC(C)C1CCC2C3C(=O)C=C4CC(OC5OC(CO)C(O)C(O)C5O)CCC4(C)C3CCC12C` [Compound 8, (7-Ketocholesteryl)-β-D-glucopyranoside], which “Reduction rate (of bleeding time)” value ([2]; 0.1 mg/Kg i.p.) is on record?
**A.** 36%

**Q.** What about the LD50 [1, 4] of the same molecule?
**A.** > 15000 mg/kg

**Q.** What about the LD50 [1, 5] of the same molecule?
**A.** > 12000 mg/kg

**Q.** For `CCC(C=CC(C)C1CCC2C3C(=O)C=C4CC(OC5OC(CO)C(O)C(O)C5O)CCC4(C)C3CCC12C)C(C)C` (centres unmarked) [Compound 10], which ED50 [3] is on record?
**A.** 43 mg/kg

**Q.** For `CC(=O)OCC1OC(OC2CCC3(C)C(=CC(O)C4C3CCC3(C)C(C(C)CCCC(C)C)CCC43)C2)C(OC(C)=O)C(OC(C)=O)C1OC(C)=O` [Compound 11, (7-hydroxycholesteryl)-2,3,4,6-tetra-0-acetyl-β-D-glucopyranoside], which “Reduction rate (of bleeding time)” value ([2]; 0.1 mg/Kg i.p.) is on record?
**A.** 18%

**Q.** Which results are given for `CCC(CCC(C)C1CCC2C3C(O)C=C4CC(OC5OC(COC(C)=O)C(OC(C)=O)C(OC(C)=O)C5OC(C)=O)CCC4(C)C3CCC12C)C(C)C` (centres unmarked) [Compound 12]?
**A.** LD50 [1, 4]: > 15000 mg/kg; LD50 [1, 5]: > 12000 mg/kg

**Q.** Which ED50 [3] does the source give for `CC(C)CCCC(C)C1CCC2C3C(O)C=C4CC(OC5OC(CO)C(O)C(O)C5O)CCC4(C)C3CCC12C` [Compound 14, (7-Hydroxycholesteryl)-β-D-glucopyranoside] here?
**A.** 38 mg/kg

**Q.** Which “Reduction rate (of bleeding time)” value ([2]; 0.1 mg/Kg i.p.) does the source give for `CCC(C=CC(C)C1CCC2C3C(O)C=C4CC(OC5OC(CO)C(O)C(O)C5O)CCC4(C)C3CCC12C)C(C)C` (centres unmarked) [Compound 16] here?
**A.** 23%

**Q.** And the LD50 [1, 4]?
**A.** > 15000 mg/kg

**Q.** What about the LD50 [1, 5] of the same molecule?
**A.** > 12000 mg/kg

**Q.** For `CN1C2=CC(=O)/C(=N\NC(N)=O)C=C2CC1S(=O)(=O)[O-].[Na+]` (centres unmarked) [Sodium carbazochromesulfonate, reference compound], which “Reduction rate (of bleeding time)” value ([2]; 10.0 mg/Kg i.p.) is on record?
**A.** 21%

**Q.** And the ED50 oral administration [3]?
**A.** > 400 mg/kg
